The test system of data set [1] is rust diseases of cereal crops. The settings on record: prior art; cited from earlier work.
For data set [2], the system named is stalk rust (Puccinia graminis f. tritici). It counts as in vivo. The conditions noted are these: for Plant injury / Weight of 1,000 grains: Table 5, Moscow region, spring wheat Krasnozernaja, 3 sprayings.
The subject of data set [3] is rust diseases of cereal crops. The experiment in a line: Activity against rust diseases of cereal crops (general statements). The settings on record: frequent heavy rains. In kind it is in vivo.
In another data set the test system is white mice. The experiment in a line: Acute peroral toxicity for warm-blooded animals (LD50, LD90). In kind it is in vivo. The settings on record: Table 2; peroral; 20160 min. On the procedure: (§1) Toxicity (LD50) was evaluated on males and females of white mice with peroral administration of the compounds. A portion of the test compound was mixed with the emulsifier Twin-20 and diluted with distilled water to the required working concentration. Administration of the preparation was effected by means of a metal probe and syringe directly into the stomach of test animals 2-3 hours after feeding. The tests were performed using several doses, 6 animals per each dose. Subsequent observation was effected for two weeks.

Data set [4] concerns stalk rust of wheat (Puccinia graminis). In kind it is in vivo. The conditions noted are these: in vivo.
For data set [5], the system named is stalk rust (Puccinia graminis f. tritici). In kind it is in vivo. The conditions noted are these: in vivo.
Data set [6] can be described thus: Acute peroral toxicity for warm-blooded animals (LD50, LD90). In kind it is in vivo, white mice. The conditions noted are these: mouse, in vivo, po, Table 2; peroral; read-out: LD50 for white mice. On the procedure:
as §1

The subject of data set [7] is spores of Piricularia oryzae Cav. In kind it is cell-based. The settings on record: 24 hours.

Values joined by “and” are separate entries in the source; they are usually repeats but may differ in a detail not shown here. Equal entries are not always repeated. Where two headings read alike, the source gives them in different places.

Regarding `CC1=C(C(=O)Nc2ccccc2)S(=O)(=O)CCO1` [Hydroxycarboxine, 1,4-dioxide-2,3-dihydro-6-methyl-5-phenylcarbamoyl-1,4-oxathiine], the “activity against rust diseases” value in data set [1] is given as “efficient in killing rust fungi”. For the same compound, the Plant injury in data set [2] (1.5 kg/ha a.p.) is given as 21.7%; in data set [2] (3.0 kg/ha a.p.), 16.1%. Also, the “Weight of 1,000 grains” value in data set [2] (1.5 kg/ha a.p.) was found to be 12.0 g; in data set [2] (3.0 kg/ha a.p.), 12.4 g. Moreover, in data set [2] (in vivo), the Yield was 9.5 c/ha and 9.3 c/ha. Moreover, the “efficiency under different agroclimatic conditions including frequent heavy rains” value in data set [3] was “low-effective”.
In the case of `CCCCCCC(=O)OC(C(Cl)(Cl)Cl)P(=O)(Oc1ccc(-c2ccccc2)cc1)Oc1ccc(-c2ccccc2)cc1` (stereo not shown) [XLIX], the “LD50 for white mice” value in the data set on white mice is given as > 1,000 mg/kg. For the same compound, in data set [4], the “Percentage of injury lowered” value came to 49%.
In the case of `CC(=O)OC(C(Cl)(Cl)Cl)P(=O)(Oc1ccc(C)cc1)Oc1ccc(C)cc1` (stereo not shown) [XVIII], in data set [5], the “Percentage of plants injured with rust, 1-st evaluation” value (“Percentage … 1-st evaluation” for short) is listed as 0.5%; the “Percentage of plants injured with rust, 2-nd evaluation” value (shortened to “Percentage … 2-nd evaluation”) was 6.5%; the “Weight of 1,000 grains” value stood at 21.4 g; the Yield was 17.20 c/ha. Further, the LD50 at 336 h in data set [6] was more than 500 mg/kg. For the same compound, in data set [4], the “Percentage of injury lowered” value is 91% and 63%.
Turning to `CCCCCCC(=O)OC(C(Cl)(Cl)Cl)P(=O)(Oc1cccc(C)c1)Oc1cccc(C)c1` (stereo not shown) [XV], in data set [5], the “Percentage … 1-st evaluation” value was 0.5%; the “Percentage … 2-nd evaluation” value is 7.0%; the “Weight of 1,000 grains” value stood at 19.4 g; the Yield was found to be 15.10 c/ha. The LD50 at 336 h in data set [6] was more than 1000 mg/kg. The “Percentage of injury lowered” value in data set [4] is 98% and 80%.
Consider `Cc1ccc(OP(=O)(Oc2ccc(C)cc2)C(OC(=O)c2ccccc2)C(Cl)(Cl)Cl)cc1` (stereo not shown) [XXIII], for which, in data set [5], the “Percentage … 1-st evaluation” value is 0.5%; the “Percentage … 2-nd evaluation” value is reported as 8.0%; the “Weight of 1,000 grains” value is given as 18.1 g; the Yield came out at 13.30 c/ha. For the same compound, the median lethal dose (LD50) at 336 h in data set [6] was more than 1000 mg/kg. For the same compound, the “Percentage of injury lowered” value in data set [4] was 89% and 79%.
Take `CCCCC(CC)C(=O)OC(C(Cl)(Cl)Cl)P(=O)(Oc1ccc(C)cc1)Oc1ccc(C)cc1` (stereo not shown) [XXII]: in data set [5], the “Percentage … 1-st evaluation” value is on record as 0.5%; the “Percentage … 2-nd evaluation” value amounted to 9.0%; the “Weight of 1,000 grains” value was 15.8 g; the Yield came out at 11.00 c/ha. Also, the LD50 at 336 h in data set [6] is more than 1000 mg/kg. Also, in data set [4], the “Percentage of injury lowered” value is 94% and 48%.
As for `CCCCCCCCc1ccc(OP(=O)(Oc2ccc(CCCCCCCC)cc2)C(OC(C)=O)C(Cl)(Cl)Cl)cc1` (stereo not shown) [XXIV], in data set [5], the “Percentage … 1-st evaluation” value was 0.5%; the “Percentage … 2-nd evaluation” value worked out at 12.0%; the “Weight of 1,000 grains” value is 13.5 g; the Yield was found to be 8.00 c/ha. In addition, the LD50 at 336 h in data set [6] was more than 1000 mg/kg. Moreover, the “Percentage of injury lowered” value in data set [4] is 62% and 35%.
With `CCCCCCC(=O)OC(C(Cl)(Cl)Cl)P(=O)(Oc1cc(C)cc(C)c1)Oc1cc(C)cc(C)c1` (stereo not shown) [XXIX], in data set [5], the “Percentage … 1-st evaluation” value came out at 0.5%; the “Percentage … 2-nd evaluation” value stood at 9.5%; the “Weight of 1,000 grains” value is 14.8 g; the Yield amounted to 9.75 c/ha. Further, the 50% lethal dose (LD50) at 336 h in data set [6] is more than 1000 mg/kg. For the same compound, the “Percentage of injury lowered” value in data set [4] is reported as 85%.
As for `CCCCCCC(=O)OC(C(Cl)(Cl)Cl)P(=O)(Oc1ccc(C)cc1)Oc1ccc(C)cc1` (stereo not shown) [XXI], in data set [5], the “Percentage … 1-st evaluation” value is recorded as 0.5%; the “Percentage … 2-nd evaluation” value stood at 7.5%; the “Weight of 1,000 grains” value is given as 18.2 g; the Yield was found to be 14.00 c/ha. Besides, the LD50 at 336 h in data set [6] was more than 1000 mg/kg. Besides, the “Percentage of injury lowered” value in data set [4] was found to be 97%.
In the case of `CCCC(=O)OC(C(Cl)(Cl)Cl)P(=O)(Oc1cc(C)cc(C)c1)Oc1cc(C)cc(C)c1` (stereo not shown) [XXVIII], in data set [5], the “Percentage … 1-st evaluation” value was 0.5%; the “Percentage … 2-nd evaluation” value is recorded as 7.0%; the “Weight of 1,000 grains” value amounted to 16.6 g; the Yield is given as 11.60 c/ha. Besides, the median lethal dose (LD50) at 336 h in data set [6] was more than 1000 mg/kg. In addition, the “Percentage of injury lowered” value in data set [4] was 73%.
Regarding `CCC(=O)OC(C(Cl)(Cl)Cl)P(=O)(Oc1cc(C)cc(C)c1)Oc1cc(C)cc(C)c1` (stereo not shown) [XXVII], in data set [5], the “Percentage … 1-st evaluation” value worked out at 0.5%; the “Percentage … 2-nd evaluation” value was 10.5%; the “Weight of 1,000 grains” value is 17.1 g; the Yield is given as 11.50 c/ha. Besides, the LD50 at 336 h in data set [6] is more than 1000 mg/kg. In addition, the “Percentage of injury lowered” value in data set [4] is 92%.
For the compound `CC(=O)OC(C(Cl)(Cl)Cl)P(=O)(Oc1cc(C)cc(C)c1)Oc1cc(C)cc(C)c1` (stereo not shown) [XXVI], in data set [5], the “Percentage … 1-st evaluation” value is 0.5%; the “Percentage … 2-nd evaluation” value is 10.0%; the “Weight of 1,000 grains” value was found to be 16.7 g; the Yield was 11.70 c/ha. The 50% lethal dose (LD50) at 336 h in data set [6] was more than 1000 mg/kg. Moreover, the “Percentage of injury lowered” value in data set [4] is given as 84%.
For the compound `CCC(=O)OC(C(Cl)(Cl)Cl)P(=O)(Oc1ccc(Cl)cc1)Oc1ccc(Cl)cc1` (stereo not shown) [XXXI], in data set [5], the “Percentage … 1-st evaluation” value turned out to be 0.5%; the “Percentage … 2-nd evaluation” value amounted to 8.0%; the “Weight of 1,000 grains” value amounted to 18.0 g; the Yield stood at 13.30 c/ha. The LD50 at 336 h in data set [6] was more than 1000 mg/kg. Besides, the “Percentage of injury lowered” value in data set [4] was 82% and 59%.
Regarding `CC(=O)OC(C(Cl)(Cl)Cl)P(=O)(Oc1ccc(Cl)cc1)Oc1ccc(Cl)cc1` (stereo not shown) [XXX], in data set [5], the “Percentage … 1-st evaluation” value was 0.5%; the “Percentage … 2-nd evaluation” value amounted to 7.0%; the “Weight of 1,000 grains” value was 20.9 g; the Yield turned out to be 16.70 c/ha. Further, the LD50 at 336 h in data set [6] was more than 1000 mg/kg. The “Percentage of injury lowered” value in data set [4] is 89% and 68%.
Take `CCCC(=O)OC(C(Cl)(Cl)Cl)P(=O)(Oc1ccc(C)cc1)Oc1ccc(C)cc1` (stereo not shown) [XX]: in data set [5], the “Percentage … 1-st evaluation” value came to 0.5%; the “Percentage … 2-nd evaluation” value is on record as 7.5%; the “Weight of 1,000 grains” value is listed as 18.2 g; the Yield came out at 13.45 c/ha. Besides, the LD50 at 336 h in data set [6] was more than 1000 mg/kg. In addition, in data set [4], the “Percentage of injury lowered” value was 97%.
As for `CCOP(=O)(OCC)SCc1ccccc1` [kitacin, O,O-diethyl-S-benzylthiophosphate, reference compound], in data set [7], the “Concentration causing 50% death of spores” value turned out to be 28.6 mg/L.

As a reminder, the LD50 is the dose at which mortality reaches 50%.

(Values after patent publication US4212862A, “O,O-Diaryl-1-acyloxy-2,2,2-trichloroethylphosphonates and fungicides based thereon” (priority 1978, dated 1980).)
